Test results: ChEMBL document CHEMBL1201862, “PubChem BioAssay data set” (2004)
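Briefly, cells in 96-well plates were exposed to five compound concentrations for 48 h, and endpoints were estimated by linear interpolation. Abbreviation: GI50, concentration required for 50% inhibition of growth.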 Activity calls are given as the source filed them. Cut-off read from the data, not from the text of the source: active = GI50 up to about 1.1 µM and inactive = higher.

Experiments:
Assay in all cases: NCI tumour cell line growth inhibition, 48 h
[1] = system: NCI-H460
[2] = system: SW-620
[3] = system: TK-10
[4] = system: HCT-15
[5] = system: SK-OV-3
[6] = system: UACC-62
[7] = system: EKVX
[8] = system: HOP-62
[9] = system: SNB-19
[10] = system: K562
[11] = system: U-251
[12] = system: NCI-H23
[13] = system: COLO 205
[14] = system: M14
[15] = system: A498
[16] = system: OVCAR-3
[17] = system: MDA-MB-231
[18] = system: PC-3
[19] = system: MDA-MB-435

SMILES | GI50 [1] | GI50 [2] | GI50 [3] | GI50 [4] [µM] | GI50 [5] | GI50 [6] | GI50 [7] | GI50 [8] | GI50 [9] | GI50 [10] | GI50 [11] | GI50 [12] | GI50 [13] | GI50 [14] | GI50 [15] | GI50 [16] | GI50 [17] | GI50 [18] | GI50 [19]
CCOC(=O)C1(C(=O)OCC)CC=C(C)CC12C(=O)Nc1ccccc12 (configuration not stated) | > 100 µM (inactive) | > 100 µM (inactive) | > 100 µM (inactive) | > 100 | > 100 µM (inactive) | > 100 µM (inactive) | > 100 µM (inactive) | > 100 µM (inactive) | > 100 µM (inactive) | > 100 µM (inactive) | > 100 µM (inactive) | > 100 µM (inactive) | > 100 µM (inactive) | > 100 µM (inactive) | > 100 µM (inactive) | > 100 µM (inactive) |  |  | 
C[C@]12CC(C=O)C(=O)C(O)=C1CC[C@@H]1C2CC[C@@]2(C)C1CC[C@]2(C)O (some centres not stated) | 30.3 µM (inactive) | 34.3 µM (inactive) | 38.9 µM (inactive) | 23 | 21.4 µM (inactive) | 13.8 µM (inactive) | 31.8 µM (inactive) | 22.1 µM (inactive) | 25.2 µM (inactive) | 25.9 µM (inactive) | 20.4 µM (inactive) | 21.7 µM (inactive) | 18.8 µM (inactive) | 16.8 µM (inactive) | 22.1 µM (inactive) | 24.8 µM (inactive) |  |  | 
Cc1nc(N)nc(CCC(=O)Nc2cccc(C(F)(F)F)c2)c1-c1ccc(Cl)cc1 | > 100 µM (inactive) | > 100 µM (inactive) | > 100 µM (inactive) | > 100 | > 100 µM (inactive) | > 100 µM (inactive) | > 100 µM (inactive) | > 100 µM (inactive) | > 100 µM (inactive) | > 100 µM (inactive) | > 100 µM (inactive) | > 100 µM (inactive) | > 100 µM (inactive) | > 100 µM (inactive) | > 100 µM (inactive) | > 100 µM (inactive) |  |  | 
COC(=O)C12C3C4C1C1C2C3C41I (configuration not stated) | > 100 µM (inactive) | > 100 µM (inactive) | > 100 µM (inactive) | > 100 | > 100 µM (inactive) | > 100 µM (inactive) | > 100 µM (inactive) | > 100 µM (inactive) | > 100 µM (inactive) | > 100 µM (inactive) | > 100 µM (inactive) | > 100 µM (inactive) | > 100 µM (inactive) | > 100 µM (inactive) | > 100 µM (inactive) | > 100 µM (inactive) |  |  | 
Oc1nnc(CNc2ccc(Cl)cc2Cl)c2ccccc12 | 24.6 µM (inactive) | 37.1 µM (inactive) | 20.7 µM (inactive) | 20.1 | 18.9 µM (inactive) | 27.5 µM (inactive) | 36.2 µM (inactive) | 20.5 µM (inactive) | 28.1 µM (inactive) | 44.9 µM (inactive) | 18.2 µM (inactive) |  | 45.8 µM (inactive) | 32 µM (inactive) | 8.24 µM (inactive) | 18.9 µM (inactive) |  |  | 
CN(C)/C=N\c1ccn(CCO)c(=O)n1 | > 100 µM (inactive) | > 100 µM (inactive) | > 100 µM (inactive) | > 100 | > 100 µM (inactive) | > 100 µM (inactive) | > 100 µM (inactive) | > 100 µM (inactive) | > 100 µM (inactive) | > 100 µM (inactive) | > 100 µM (inactive) | > 100 µM (inactive) | > 100 µM (inactive) | > 100 µM (inactive) | > 100 µM (inactive) | > 100 µM (inactive) |  |  | 
COc1cc2cnc3c4ccccc4ccc3c2cc1OC | > 100 µM (inactive) | > 100 µM (inactive) | > 100 µM (inactive) |  | > 100 µM (inactive) | > 100 µM (inactive) | 6.73 µM (inactive) | > 100 µM (inactive) | > 100 µM (inactive) | > 100 µM (inactive) | > 100 µM (inactive) | > 100 µM (inactive) | > 100 µM (inactive) | > 100 µM (inactive) | > 100 µM (inactive) | > 100 µM (inactive) |  |  | 
CCCCCCNc1n[nH]c(=O)c2c1nnn2Cc1ccccc1 | > 100 µM (inactive) |  | > 100 µM (inactive) | > 100 |  |  | > 100 µM (inactive) | > 100 µM (inactive) | > 100 µM (inactive) | > 100 µM (inactive) | > 100 µM (inactive) | > 100 µM (inactive) | > 100 µM (inactive) | > 100 µM (inactive) |  | > 100 µM (inactive) | > 100 µM (inactive) | > 100 µM (inactive) | > 100 µM (inactive)
CC(C)[C@@H](C)[C@@]1(C)C[C@@H]1[C@@H](C)[C@H]1CC[C@@H]([C@@H]2CC=C3C[C@@H](O)CC[C@]3(C)C2=O)[C@]1(C)CCO | 1.77 µM (inactive) | 7.55 µM (inactive) | 11.5 µM (inactive) | 5.27 |  | 14.6 µM (inactive) | 12.9 µM (inactive) | 17.3 µM (inactive) | 12.6 µM (inactive) | 3.49 µM (inactive) | 11 µM (inactive) | 14.1 µM (inactive) | 11.9 µM (inactive) |  | 15.3 µM (inactive) | 12.8 µM (inactive) | 14.8 µM (inactive) | 10.1 µM (inactive) | 11.9 µM (inactive)
